Our source for the EC50 values is patent US9186361B2, “Compounds and compositions for the treatment of parasitic diseases” (Novartis AG, priority 2013, dated 2015).

Test [1] concerns Leishmania donovani axenic amastigote parasites. Briefly: Assay for Leishmania proliferation in vitro (axenic amastigotes, Cell TiterGlo). Format: cell-based. Particulars: 48 h, 2 day incubation, read-out: L. donovani amastigotes EC50. As for the experimental part: Leishmania donovani axenic amastigote parasites are grown at 37° C., 5% CO2 in media made of RPMI 1640, 4 mM L-glutamine, 20% heat inactivated FBS, 100 units/ml of penicillin and 100 μg/ml of streptomycin, 23 μM Folic Acid, 100 μM Adenosine, 22 mM D-glucose, 25 mM MES. The pH of media is adjusted to 5.5 at 37° C. using HCl. 20 μL of media is first dispensed into 384 well plates and […] of the compounds of invention in DMSO are added to the plate wells. At the same time control compounds and DMSO are added to plates to serve as the positive and negative controls, respectively. 40 μL of parasite culture (9600 parasites) are then added to the plate wells. The plates are then placed into incubators. After 2 day incubation, 20 μL of Cell TiterGlo (Promega) is added to the plate wells. The luminescence signal of each well is measured using the Envision reader (Perkin Elmer). The percentage inhibition of 50%, EC50, is calculated for each of the compounds.
(ATP-based viability assays read luminescence as a measure of living cells.)

Test [2] has as its system L. donovani HU3 strain in mouse peritoneal macrophages. The test can be described thus: Proliferation of L. donovani in mouse peritoneal macrophages (SybrGreen, high-content imaging). In kind it is cell-based. Particulars: Leishmania donovani, Peritoneal macrophage, 120 h; infected mouse peritoneal macrophages, 5 days; read-out: L. donavani Macrophage EC50. The text has this:
The activity of a compound according to the present invention for inhibition of parasitemai can be assessed by the parasite proliferation assay. The assay measures the increase in the parasite number in the assayed plate well using a DNA intercalating dye, SYBR Green I® dye (INVITROGEN) to stain Leishmania cell nuclei. It is understood that the assays illustrate the invention without in any way limiting the scope of the invention.
L. donovani HU3 strain is propagated by infecting BALBc mice through tail vein injection with 10^7 Leishmania parasites. Infected mice are allowed to develop infection during 9-11 weeks post-infection. During this time, the parasites accumulate in the infected mouse spleens to large numbers, and the infected mice serve as the source of parasites for the in vitro measurement of compound efficacies. To assay a compound for anti-leishmanial activity, peritoneal macrophages isolated from non-infected BALBc mice are seeded into 384-well plates at density 2×10^4 macrophages per well in 25 mL of medium (RPMI1640, 10% fetal serum albumin, 10 mM HEPES, 1 mM sodium pyruvate, 1% Pen/Strep). Subsequently, the seeded plates are placed into an incubator set to maintain 37° C. temperature and atmosphere with 5% CO2. The next day, Leishmania parasites are isolated from the spleens of mice infected for 9-11 weeks and 4×10^5 isolated parasites in […] of the above media are added to each plate well. Plates are then returned into incubators and infection is allowed to proceed for 24 hours. After the infection of macrophages is completed, […] of compounds of the invention in the above medium, which also contains 5% DMSO, are added to plate wells containing infected macrophages. At the same time control compounds (miltefosine and amphotericin B) and DMSO are added to plates to serve as the positive and negative controls, respectively. After the compound addition, the plates are returned into incubator and cells infected with parasites are cultured for 5 days. At the end of cultivation, […] of 8% paraformaldehyde is added to plate wells and incubated for 15 min at room temperature. Following the incubation, the paraformaldehyde from plate wells is aspirated, and […] of PBS containing 0.2% Triton X-100 is added to wells. After 15 min incubation, the solution is aspirated from wells again, and replaced with SybrGreen Dye solution in PBS (1:125,000 dilution). Infected cells are imaged with Evotec Opera high-content microscope, and the number of parasites in well is determined by counting parasite nuclei visualized by staining with SybrGreen dye. The percentage inhibition of 50%, EC50, is calculated for each compound.
The inhibitory efficacy of the compounds of the invention against proliferation of L. donovani in mouse peritoneal macrophages is provided in Table I.

pEC50: −log10 of the molar value. A value given as a limit tells only on which side of the number the result lay.

The pEC50 is the negative decadic logarithm of the EC50, by convention in mol/L. In the case of `NCCCNc1cnc2nc(-c3cc(NC(=O)c4ccc(F)o4)ccc3Cl)[nH]c2c1` [Example 69, N-(3-{6-[(3-aminopropyl)amino]-1H-imidazo[4,5-b]pyridin-2-yl}-4-chlorophenyl)-5-fluorofuran-2-carboxamide], the pEC50 is below 4.60 in test [1] and below 4.30 in test [2].
As to `O=C(Nc1ccc(Cl)c(-c2nc3ncc(NCC4CCNCC4)cc3[nH]2)c1)c1ccco1` [Example 27, N-(4-chloro-3-{6-[(piperidin-4-ylmethyl)amino]-1H-imidazo[4,5-b]pyridin-2-yl}phenyl)furan-2-carboxamide], the pEC50 in test [1] was below 4.60; in test [2], below 4.30.
In the same order, the values of `CC(C)(N)CNc1cnc2nc(-c3cc(NC(=O)c4ccco4)ccc3Cl)[nH]c2c1` [Example 31, N-(3-{6-[(2-amino-2-methylpropyl)amino]-1H-imidazo[4,5-b]pyridin-2-yl}-4-chlorophenyl)furan-2-carboxamide] are below 4.60 and below 4.30.
Consider `Cc1ccc(C(=O)Nc2ccc(Cl)c(-c3nc4ncc(NC(=O)OC(C)C)cc4[nH]3)c2)o1` [Example 17, propan-2-yl N-{2-[2-chloro-5-(5-methylfuran-2-amido)phenyl]-1H-imidazo[4,5-b]pyridin-6-yl}carbamate], for which the results for the pEC50 in test [1] and in test [2] were 5.12 and 4.88, respectively.
As for `CC(C)OC(=O)Nc1cnc2nc(-c3cc(NC(=O)c4ccco4)ccc3Cl)oc2c1` [Example 76, propan-2-yl N-(2-{2-chloro-5-[(furan-2-yl)carbonylamino]phenyl}-[1,3]oxazolo[4,5-b]pyridin-6-yl)carbamate], the pEC50 in test [1] is 6.59; in test [2], 6.35.
As for `CN(C)S(=O)(=O)Nc1cnc2nc(-c3cc(NC(=O)c4ccco4)ccc3Cl)[nH]c2c1` [Example 51, N-(4-chloro-3-{6-[(dimethylsulfamoyl)amino]-1H-imidazo[4,5-b]pyridin-2-yl}phenyl)furan-2-carboxamide], the pEC50 in test [1] was below 4.60; in test [2], 5.06.
Turning to `NC(=O)C1(C(=O)Nc2cnc3nc(-c4cc(NC(=O)c5ccco5)ccc4Cl)[nH]c3c2)CC1` [Example 64, 1-N-{2-[2-chloro-5-(furan-2-amido)phenyl]-1H-imidazo[4,5-b]pyridin-6-yl}cyclopropane-1,1-dicarboxamide], the values for the pEC50 in test [1] and in test [2] were 4.68 and below 4.30, respectively.
As for `CC(C)(C)OC(=O)N1CC[C@H](CC(=O)Nc2cnc3nc(-c4cc(NC(=O)c5ccco5)ccc4Cl)[nH]c3c2)C1` [Example 28], the pEC50 in test [1] is below 4.60; in test [2] it was below 4.30.
In the same order, the values of `CN(C)/C=N/c1cnc2nc(-c3cc(NC(=O)c4ccco4)ccc3Cl)[nH]c2c1` [Example 50, N-(4-chloro-3-{6-[(E)-[(dimethylamino)methylidene]amino]-1H-imidazo[4,5-b]pyridin-2-yl}phenyl)furan-2-carboxamide] are 5.22 and 5.29.
Regarding `CC(C)OC(=O)Nc1ccc(Cl)c(-c2nc3ncc(NC(=O)OC(C)C)cc3[nH]2)c1` [Example 4, propan-2-yl N-[2-(2-chloro-5-{[(propan-2-yloxy)carbonyl]amino}phenyl)-1H-imidazo[4,5-b]pyridin-6-yl]carbamate], the figures for the pEC50 in test [1] and in test [2] were 6.36 and 6.08, respectively.
On to `CC(C)S(=O)(=O)Nc1cnc2nc(-c3cc(NC(=O)c4ccc(C#N)o4)ccc3Cl)[nH]c2c1` [Example 60, N-{4-chloro-3-[6-(propane-2-sulfonamido)-1H-imidazo[4,5-b]pyridin-2-yl]phenyl}-5-cyanofuran-2-carboxamide], for which the negative logarithm of the EC50 (pEC50) in test [1] is 5.61; in test [2], 4.75.
For the compound `O=C(Nc1ccc(Cl)c(-c2nc3ncc(NC(=O)C4(C(F)(F)F)CCC4)cc3[nH]2)c1)c1ccco1` [Example 37, N-[4-chloro-3-(6-{[1-(trifluoromethyl)cyclobutane]amido}-1H-imidazo[4,5-b]pyridin-2-yl)phenyl]furan-2-carboxamide], the pEC50 in test [1] is 6.07; in test [2], 6.28.
Regarding `CN(C)CC(=O)Nc1cnc2nc(-c3cc(NC(=O)c4ccco4)ccc3Cl)[nH]c2c1` [Example 40, N-(4-chloro-3-{6-[2-(dimethylamino)acetamido]-1H-imidazo[4,5-b]pyridin-2-yl}phenyl)furan-2-carboxamide], the pEC50 in test [1] was below 4.60; in test [2], 5.07.
Take `O=CNc1cnc2nc(-c3cc(NC(=O)c4ccc(F)o4)ccc3Cl)[nH]c2c1` [Example 74, N-(4-chloro-3-{6-formamido-1H-imidazo[4,5-b]pyridin-2-yl}phenyl)-5-fluorofuran-2-carboxamide]: the results for the pEC50 in test [1] and in test [2] were 4.97 and below 4.30, respectively.
Taken in the same sequence, the figures for `CN(C)c1cnc2nc(-c3cc(NC(=O)c4ccco4)ccc3Cl)[nH]c2c1` [Example 13, N-{4-chloro-3-[6-(dimethylamino)-1H-imidazo[4,5-b]pyridin-2-yl]phenyl}furan-2-carboxamide] were 5.63 and 5.07.
Regarding `Cc1ccc(C(=O)Nc2ccc(Cl)c(-c3nc4ncc(N)cc4[nH]3)c2)o1` [Example 29, N-(3-{6-amino-1H-imidazo[4,5-b]pyridin-2-yl}-4-chlorophenyl)-5-methylfuran-2-carboxamide], the pEC50 in test [1] was below 4.60; in test [2], below 4.30.
For the compound `Cc1cnc(C(=O)Nc2cnc3nc(-c4cc(NC(=O)c5ccco5)ccc4Cl)[nH]c3c2)s1` [Example 1, N-{2-[2-chloro-5-(furan-2-amido)phenyl]-1H-imidazo[4,5-b]pyridin-6-yl}-5-methyl-1,3-thiazole-2-carboxamide], the pEC50 was 6.89 in test [1] and 6.14 in test [2].
Regarding `CC(C)(N)COC(=O)Nc1cnc2nc(-c3cc(NC(=O)c4ccco4)ccc3Cl)[nH]c2c1` [Example 23, 2-amino-2-methylpropyl N-{2-[2-chloro-5-(furan-2-amido)phenyl]-1H-imidazo[4,5-b]pyridin-6-yl}carbamate], the pEC50 is 4.68 in test [1] and 4.47 in test [2].
In the same order, the values of `CC(C)OC(=O)Nc1cnc2nc(-c3cc(NC(=O)N4CCCC4)ccc3Cl)oc2c1` [Example 75, propan-2-yl N-(2-{2-chloro-5-[(pyrrolidin-1-yl)carbonylamino]phenyl}-[1,3]oxazolo[4,5-b]pyridin-6-yl)carbamate] are 6.88 and 6.78.
Turning to `CC(C)S(=O)(=O)Nc1cnc2nc(-c3cccc(NC(=O)c4ccc(F)o4)c3)[nH]c2c1` [Example 77, 5-fluoro-N-{3-[6-(propane-2-sulfonamido)-1H-imidazo[4,5-b]pyridin-2-yl]phenyl}furan-2-carboxamide], the pEC50 in test [1] was below 4.60; in test [2] it was 4.64.
